This passage reports IC50, MIC and MBC results from ChEMBL document CHEMBL5252638, “Novel triphenylphosphonium amphiphilic conjugates of glycerolipid type: synthesis, cytotoxic and antibacterial activity, and targeted cancer cell delivery” (RSC Med Chem, 2023).

The test system of one series is M-HeLa. Put plainly: Cytotoxicity against human HelaM cells assessed as number of viable cells measured after 48 hrs by MTT based colorimetric assay. Format: functional, cell-based. A general note: Tetrazolium dyes change colour on reduction, which living cells bring about.
The next series concerns MCF7. The experiment in a line: Cytotoxicity against human MCF7 cells assessed as number of viable cells measured after 48 hrs by MTT based colorimetric assay. The following applies: MCF7, 48 h. Format: functional, cell-based.
The subject of another series is HuTu80. Put plainly: Cytotoxicity against human HuTu80 cells assessed as number of viable cells measured after 48 hrs by MTT based colorimetric assay. The conditions noted are these: HuTu80, 48 h. It counts as functional, cell-based.
The subject of the next series is PANC-1. The experiment in a line: Cytotoxicity against human PANC-1 cells assessed as number of viable cells measured after 48 hrs by MTT based colorimetric assay. Format: functional, cell-based. The conditions noted are these: PANC-1, 48 h.
For another series, the system named is A549. Put plainly: Cytotoxicity against human A549 cells assessed as number of viable cells measured after 48 hrs by MTT based colorimetric assay. It counts as functional, cell-based. The following applies: A549, 48 h.
The next series has as its system T98G. The experiment in a line: Cytotoxicity against human T98G cells assessed as number of viable cells measured after 48 hrs by MTT based colorimetric assay. Format: functional, cell-based.
In the next series the test system is HepG2. Put plainly: Cytotoxicity against human HepG2 cells assessed as number of viable cells measured after 48 hrs by MTT based colorimetric assay. Format: functional, cell-based. The conditions noted are these: HepG2, 48 h.
Another series deals with SK-OV-3. The experiment in a line: Cytotoxicity against human SK-OV-3 cells assessed as number of viable cells measured after 48 hrs by MTT based colorimetric assay. Format: functional, cell-based. The following applies: SK-OV-3, 48 h.
A further series concerns DU-145. Put plainly: Cytotoxicity against human DU-145 cells assessed as number of viable cells measured after 48 hrs by MTT based colorimetric assay. Format: functional, cell-based. The following applies: DU-145, 48 h.
A short description of series [1]: Cytotoxicity against human WI-38 cells assessed as number of viable cells measured after 48 hrs by MTT based colorimetric assay. Format: toxicity, cell-based.
The nature of series [2]: Cytotoxicity against human Chang liver cells assessed as number of viable cells measured after 48 hrs by MTT based colorimetric assay. Format: toxicity, cell-based.
Series [3] concerns Pseudomonas aeruginosa. Put plainly: Antimicrobial activity against Pseudomonas aeruginosa ATCC 9027 by serial microdilution method. Format: functional. (In general: Broth dilution looks for growth in wells or tubes with falling amounts of substance.)
For series [4], the system named is Staphylococcus aureus. Put plainly: Antimicrobial activity against Staphylococcus aureus ATCC 6538 P FDA 209P by serial microdilution method. It counts as functional.
Series [5] concerns Bacillus cereus. Put plainly: Antimicrobial activity against Bacillus cereus ATCC 10702 NCTC 8035 by serial microdilution method. Format: functional.
Series [6] relates to Enterococcus faecalis. The experiment in a line: Antimicrobial activity against Enterococcus faecalis ATCC 29212 by serial microdilution method. It counts as functional.
The test system of series [7] is Escherichia coli. The experiment in a line: Antimicrobial activity against Escherichia coli ATCC 25922 by serial microdilution method. It counts as functional.
The subject of series [8] is Staphylococcus aureus. Put plainly: Bactericidal against Staphylococcus aureus ATCC 6538 P FDA 209P by serial microdilution method. Format: functional.
The test system of series [9] is Bacillus cereus. The experiment in a line: Bactericidal activity against Bacillus cereus ATCC 10702 NCTC 8035 by serial microdilution method. Format: functional.
Series [10] relates to Enterococcus faecalis. The experiment in a line: Bactericidal activity against Enterococcus faecalis ATCC 29212 by serial microdilution method. Format: functional.
Series [11] has as its system Escherichia coli. Put plainly: Bactericidal activity against Escherichia coli ATCC 25922 by serial microdilution method. Format: functional.
Series [12] deals with Pseudomonas aeruginosa. The experiment in a line: Bactericidal against Pseudomonas aeruginosa ATCC 9027 by serial microdilution method. Format: functional.

Converted amounts (≈) assume the structure as drawn.

Consider `COc1cccc2c1C(=O)c1c(O)c3c(c(O)c1C2=O)C[C@@](O)(C(=O)CO)C[C@@H]3O[C@H]1C[C@H](N)[C@H](O)[C@H](C)O1` [DOXORUBICIN], for which the IC50 with M-HeLa came to 2100 nM; with MCF7, 400 nM; in the series with HuTu80 it was 200 nM; in the series on PANC-1, 2200 nM; with A549 it was 700 nM; with T98G, 1000 nM. The half-inhibitory concentration (IC50) was found to be 200 nM with HepG2, 6.7 µM in the series with SK-OV-3 and 300 nM in the series on DU-145. In addition, the IC50 at 48 h turned out to be 400 nM in series [1] and 500 nM in series [2].
Turning to `CCn1cc(C(=O)O)c(=O)c2cc(F)c(N3CCNCC3)cc21` [NORFLOXACIN], the MIC was determined as 12.1 µM (≈ 3.86 µg/mL) against Pseudomonas aeruginosa [3]; 7.5 µM (≈ 2.4 µg/mL) with Staphylococcus aureus [4]; 24.4 µM (≈ 7.79 µg/mL) in the series on Bacillus cereus [5]; 24.4 µM (≈ 7.79 µg/mL) in the series with Enterococcus faecalis [6]; 4.7 µM (≈ 1.5 µg/mL) against Escherichia coli [7]. Besides, the MBC was 7.5 µM (≈ 2.4 µg/mL) in the series with Staphylococcus aureus [8]; 24.4 µM (≈ 7.79 µg/mL) against Bacillus cereus [9]; 24.4 µM (≈ 7.79 µg/mL) against Enterococcus faecalis [10]; 24.4 µM (≈ 7.79 µg/mL) against Escherichia coli [11]; 49 µM (≈ 15.6 µg/mL) against Pseudomonas aeruginosa [12].

The IC50 is the point on the concentration scale where inhibition reaches its midpoint. As usually defined, the MIC is the lowest concentration found to suppress growth. Read a low MIC as inhibition by little substance. The term MBC denotes the smallest concentration meeting the test's criterion for killing. A lower MBC goes with more potent killing.
